Data published in patent US9199200B2, “Submerged membrane bioreactor system and biological methods for removing bisphenol compounds from municipal wastewater” (Centre de Recherche Industrielle de Québec (CRIQ), priority 2010, dated 2015).

Test: Thermodynamic parameters of BPA adsorption on inactivated sludge
Assay type: physicochemical
Procedure: The third set of assays consisted of evaluating the thermodynamic parameters such as Gibbs free energy)(ΔG^0), enthalpy)(ΔH^0 and entropy)(ΔS^0 changes, which parameters allowed to determine whether BPA sorption on sludge was due to physisorption or chemisorption phenomenon or the combination of both phenomena. For that, Erlenmeyer flasks containing 200 mL of inactivated sludge at 15 g TSS L^−1 and 5 mgL^−1 of BPA are used. Mixing is achieved at 150 rpm and different temperatures (22±2, 30±2 and 40±2° C.) are respectively imposed for 2 h of experiment time.
In order to calculate whether the adsorption process is spontaneous or not, thermodynamics parameters including standard Gibbs free energy of adsorption (ΔadG^0), standard enthalpy of adsorption (ΔadH^0) and standard entropy change of) adsorption (ΔadS^0) have been considered. ΔadG^0 is calculated using the following equation (Eq. (22)): ΔadG^0=−RT ln Kd (22)
T is the temperature (K), and KD is the specific adsorption coefficient (equilibrium distribution coefficient). Relation between ΔadG^0, ΔH^0 and ΔadS^0 is expressed by the following equation (Eq. (23)): ΔadG^0=ΔadH^0−TΔadS^0 (23)
wherein ΔadH^0, ΔadS^0 are calculated from the slope and intercept of the plot of ln KD versus 1/T, respectively.
The adsorption tests are conducted at different temperatures ranging from 293 K to 313 K. At each temperature, the corresponding KD at fixed initial concentration of BPA is calculated and the corresponding Gibbs free energy change is deducted according to Eq. (22).

Structure (SMILES): CC(C)(c1ccc(O)cc1)c1ccc(O)cc1 [BPA, 2,2-Bis(4-hydroxyphenyl)propane]
- ΔadH^0 (293-313 K): −82.121 KJmol^−1
- ΔadS^0 (293-313 K): −0.257 KJmol^−1K^−1
- ΔadG^0 (293 K): -1.72 kcal/mol
- ΔadG^0 (303 K): -0.7216 kcal/mol
- ΔadG^0 (313 K): -0.5067 kcal/mol
